Assay results from patent publication US20240197603A1, “METHODS AND COMPOSITIONS FOR TREATING HYPERPIGMENTATION DISORDERS” (INSERM (INSTITUT NATIONAL DE LA SANTÉ ET DE LA RECHERCHE …, priority 2021, published 2024).

Key:
tyrosinase [1] = target: T1, tyrosinase (Mus musculus, UniProt P11344); test: DOPA oxidase assay, agent added directly in cell lysates; format: biochemical; design: when added directly in cell lysates during the DOPA oxidase assay; endogenous in cells; B16F10 by context); conditions: during the DOPA oxidase assay
T1 sequence (P11344 19-533): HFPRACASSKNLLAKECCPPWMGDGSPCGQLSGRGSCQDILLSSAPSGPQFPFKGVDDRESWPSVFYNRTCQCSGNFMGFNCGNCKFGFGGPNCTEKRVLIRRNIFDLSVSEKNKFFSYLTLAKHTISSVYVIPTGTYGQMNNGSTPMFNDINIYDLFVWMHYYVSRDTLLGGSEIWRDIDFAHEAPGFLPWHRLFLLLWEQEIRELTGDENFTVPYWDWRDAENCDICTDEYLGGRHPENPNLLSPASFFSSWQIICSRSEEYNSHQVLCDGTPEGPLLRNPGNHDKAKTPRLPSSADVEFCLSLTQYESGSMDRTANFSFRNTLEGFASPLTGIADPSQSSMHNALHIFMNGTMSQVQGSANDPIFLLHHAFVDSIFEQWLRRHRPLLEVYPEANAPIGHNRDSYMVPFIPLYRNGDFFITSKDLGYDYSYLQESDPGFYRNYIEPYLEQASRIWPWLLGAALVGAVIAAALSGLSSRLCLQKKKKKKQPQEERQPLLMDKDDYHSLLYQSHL
Method: (§1) Proteins were resuspended in 0.1M Sodium Phosphate pH 6.8, supplemented with 5 mM L-DOPA. After incubation for 1 hour at 37° C., optical density was read at 475 nm.

[2] = test system: MNT1 human melanoma cells; test: Melanin production in MNT1 human melanoma cells; format: cell-based
Method: (§2) Mouse B16F10 and Human 501Mel melanoma cells were cultured in Dulbecco's modified Eagle's medium (DMEM) supplemented with 7% Fetal Bovine Serum and 1% Penicillin/Streptomycin. Human MNT1 melanoma cells were cultured as described (Yasumoto et al., 2004). Normal Human Melanocytes were isolated from foreskin obtained after phimosis surgery. Patient consent was not required because French laws consider tissue left over from postectomy as discarded material. Melanocytes were cultured in MCDB medium as described (Bonet et al., 2017). Cells were tested every 4 weeks for mycobacterial presence. […] Cells were detached with 0.05% Trypsin-EDTA solution (Thermo Scientific, France) and solubilized in NaOH 0.5N. Optical density was measured at 405 nm using melanin standard as a reference. Melanin content was normalized to the protein content.

B16F10 cells [3] = test: Melanin content in B16F10 cells; format: cell-based, Mouse
Method: as §2, with “Cells were transfected with 50 nM siRNAs to SLC7A5, MITF or control siRNAs (ON-TARGETplus, Dharmacon) using HiPerfect transfection reagent (Qiagen, France). When indicated, Forskolin (20 μM) and IBMX (100 μM) were added to induce pigmentation on B16F10 cells. 48 hours later, medium was removed, and cells were used for western blot, quantitative PCR, melanin content analyses, immunofluorescence or brightfield imaging. Cells were detached with” for “Cells were detached with”

B16F10 cells [4] = test: Western blot of protein expression in B16F10 cells; format: cell-based, Mouse
Method: Proteins were analyzed by SDS-PAGE and transferred on PVDF membranes (Sigma, France). The antibodies used were as follow: beta-actin (ab8226), MITF (ab12039) and Tyrosinase (ab738) from Abcam, Rab27a (#69295) and HSP90 (#4874) from Cell Signaling Technologies, SLC7A5 (sc-374232) and TYRPI (sc-166857) from Santa Cruz. Signals were detected with horseradish peroxidase conjugated secondary antibodies using ECL detection kit and quantified by digital imaging (Fuji LAS4000).

tyrosinase [5] = target: T1, tyrosinase; test: Tyrosinase (L-DOPA) activity after treatment of B16F10 cells; format: cell-based; design: endogenous in cells; host or cells: B16F10 melanoma cells; conditions: B16F10 cells treated at 10 mM
Method: as §1

[6] = test system: Phototype VI Reconstructed Human Pigmented Epidermis
Method: Phototype VI Reconstructed Human Pigmented Epidermis (Sterlab, France) were treated with BCH or vehicle for 7 days. 10 μm cryosections were used to visualize melanin using Fontana-Masson stain kit (Interchim, France). Images were taken with a Nikon microscope and a 20× lens. Melanin content was quantified after solubilization of epidermis in Solvable® solution (PerkinElmer, France), and melanin content was quantified as described above.

[7] = test system: normal human melanocytes (NHM); test: Melanin production in normal human melanocytes; format: cell-based; conditions: pigmented normal human melanocytes
Method: as §2

B16F10 cells [8] = test: Cell viability / proliferation of B16F10 cells (CellTiter Aqueous One); format: cell-based, Mouse
Method: as §2, with “Cell viability was evaluated using CellTiter Aqueous One Solution Cell Proliferation Assay (Promega,” for “Cells were detached with 0.05% Trypsin-EDTA solution (Thermo Scientific,”, “France)” for “France) and solubilized in NaOH 0.5N. Optical density was measured at 405 nm using melanin standard”, “recommended by” for “a reference. Melanin content was normalized to”, “supplier.” for “protein content.”

How did the “tyrosinase activity, added directly in cell lysates” value (tyrosinase [1]) turn out when `NC1(C(=O)O)CC2CCC1C2` (stereo not shown) [BCH] was run?
Its value is “does not inhibit tyrosinase activity”.

What about the melanin production [2] of the same molecule?
Its melanin production is “significantly decreased melanin production”.

What about the “inhibition of melanin production” value (B16F10 cells [3]; B16F10 cells, BCH at 5 mM) of the same molecule?
Its value is 25%.

What about the “inhibition of melanin production” value (B16F10 cells [3]; B16F10 cells, BCH at 10 mM) of the same molecule?
The value was 60%.

And the Slc7a5 expression (B16F10 cells [4]; Western blot, B16F10 cells)?
The Slc7a5 expression was “did not affect Slc7a5 expression”.

And the “Tyrosinase or Rab27a expression” value (B16F10 cells [4]; Western blot, B16F10 cells)?
The value was “not affected consistently”.

What about the Tyrp1 expression (B16F10 cells [4]; Western blot, B16F10 cells) of the same molecule?
The Tyrp1 expression was “dose-dependent increase”.

And the “conversion of LC3-I to LC3-II (autophagy)” value (B16F10 cells [4]; at 5 and 10 mM)?
The value was “induced a conversion of LC3-I to LC3-II”.

What about the “tyrosinase activity after treatment of cells” value (tyrosinase [5]) of the same molecule?
Its value is “did not”.

And the “epidermis structure and keratinisation” value [6]?
The value was “without affecting epidermis structure or keratinisation”.

What about the “melanin content of reconstructed epidermis” value ([6]; treated for 7 days) of the same molecule?
Its value is “statistically significant decrease in melanin content”.

And the “pigmentation of reconstructed epidermis (macroscopic, bright field images)” value ([6]; treated for 7 days)?
Its value is “inhibited pigmentation”.

And the “pigmented melanocytes in epidermis sections (Fontana Masson staining)” value ([6]; treated for 7 days)?
The value was “absence of pigmented melanocytes”.

And the melanin production [7]?
Its melanin production is “significantly decreased melanin production”.

`Nc1cc(COc2c(Cl)cc(C[C@H](N)C(=O)O)cc2Cl)c2oc(-c3ccccc3)nc2c1` [JPH203, O-[(5-amino-2-phenyl-7-benzoxazolyl)methyl]-3,5-dichloro-L-tyrosine] was tested. Which “inhibition of pigmentation (melanin content)” value (B16F10 cells [3]; B16F10 cells, JPH203 at 10 and 50 μM, FIG. 2) did it give?
Its value is “efficiently inhibited pigmentation”.

What about the cell proliferation (B16F10 cells [8]; JPH203 at 10 and 50 μM) of the same molecule?
Its cell proliferation is “did not inhibit cell proliferation”.

And the “pigmentation of reconstructed epidermis (macroscopic, bright field images)” value ([6]; treated for 7 days)?
The value was “strong inhibition of pigmentation”.

Which inhibition at 1000 µM (B16F10 cells [3]; Mus musculus, B16-F10) does the source give for `O=c1cc(CO)occ1O` [Kojic Acid] here?
The inhibition at 1000 µM was 60%.

And the cell proliferation (B16F10 cells [8]; doses of Kojic acid that inhibit melanogenesis)?
The cell proliferation was “did not affect cell proliferation”.
